Here are results for 4 compounds from US20230124862A1, “BISMUTH THIOL COMPOUNDS AND COMPOSITIONS AND METHODS OF TREATING MICROBIAL CO-INFECTIONS” (Microbion Corporation, priority 2020, published 2023).

In brackets after ≈: the same amount, converted by molar mass. Read-outs that look alike come from different tables or passages of the source. Some results are limits rather than exact numbers.

In test [1] the test system is Candida spp. The test can be described thus: Broth microdilution MIC (Example 11). The class given is cell-based, C. parapsilosis, C. albicans, C. glabrata, C. tropicalis.
Test [2] has as its system Candida krusei. The test can be described thus: Antifungal broth microdilution (Example 13). The settings on record: C. krusei ATCC 6258, comparators, single value. The class given is cell-based.
The test system of test [3] is Aspergillus spp. The test can be described thus: Antifungal broth microdilution (Example 13). The class given is cell-based, A. niger, A. terreus, A. fumigatus, A. flavus. A general note: In broth dilution the organism is exposed to a series of concentrations in liquid medium.
The test system of test [4] is C. parapsilosis ATCC 22019. The test can be described thus: Antifungal broth microdilution (Example 13), QC organism. The format is cell-based, Candida parapsilosis. The settings on record: comparators, single value.
Test [5] relates to Candida spp. Particulars: C. parapsilosis MMX 2323 (ATCC 22019), cited from earlier work.
For test [6], the system named is Candida krusei. The settings on record: C. krusei ATCC 6258, CLSI established QC range, cited from earlier work.
Test [7] deals with Aspergillus spp. Particulars: cited from earlier work.
For test [8], the system named is C. parapsilosis ATCC 22019. Particulars: C. parapsilosis ATCC 22019, CLSI established QC range, cited from earlier work.
Test [9] concerns E. coli ATCC 25922. The test can be described thus: MIC control strain. The settings on record: QC organism, Example 13.
Test [10] concerns S. aureus ATCC 29213. The test can be described thus: MIC control strain. The settings on record: QC organism, Example 13.
For test [11], the system named is Anaerobes (Bacteroides fragilis, Clostridium difficile). The test can be described thus: Agar dilution MIC (Example 11). The format is cell-based. The settings on record: read-out: MIC. As to the method: The susceptibility of anaerobic bacteria was determined by agar dilution using Brucella Agar (BD/BBL; Lot No. 5237692) supplemented with 5 μg/mL hemin (Sigma, St. Louis, Mo.; Lot No. 108K1088), 1 μg/mL Vitamin K1 and 5% (v/v) laked sheep blood (Cleveland Scientific, Bath, Ohio; Lot No. 322799).
Agar Dilution MIC Testing (Anaerobic Bacteria and Gonococci): MIC values for anaerobic bacteria were determined using a reference agar dilution method as described by CLSI (6). Organisms were grown at 35° C. in the Bactron II Anaerobic Chamber (Shel Lab, Cornelius, Oreg.) for approximately 48 hr prior to the assay. Drug dilutions and drug-supplemented agar plates were prepared manually per CLSI (6). The plates were allowed to stand at room temperature for 1 hr to allow the agar surface to dry and pre-reduced for approximately 1 hr in the anaerobe chamber prior to inoculation. Each isolate was suspended to the equivalent of a 0.5 McFarland standard in Brucella broth using a turbidity meter (Dade Behring MicroScan, West Sacramento, Calif.). Each bacterial cell suspension was then diluted 1:10 in Brucella broth and transferred to wells in a stainless steel replicator block which was used to inoculate the test plates. The prongs on the replicator deliver approximately 1-2 μl of inoculum to an agar surface. The resulting inoculum spots contained approximately 1×10^5 CFU/spot. After the inoculum dried, the inoculated drug-supplemented agar plates and no drug growth control plates were incubated at 35° C. for 42-48 hr in the anaerobe chamber. The MIC was read per CLSI guidelines (6).
(In agar dilution the substance is mixed into plates at graded concentrations.)

Test [12] shares this test system. Particulars: cited from earlier work.
Test [13] deals with Gram-positive organisms (S. aureus, S. pneumoniae). The test can be described thus: Broth microdilution MIC with pulmonary surfactant (Survanta). The format is cell-based, Staphylococcus aureus, Streptococcus pneumoniae.
Test [14] shares this test system. The settings on record: cited from earlier work.
Setting [15] is: Bacteroides fragilis, ATCC25285, B. fragilis MMX 123 (ATCC 25285), QC.
[16] abbreviates: C. difficile MMX 4381 (ATCC 700057), QC, CC^1.
Setting [17] is: C. difficile MMX 5680 (NCTC 13336), ribotype 027, CC^1 MET^R.
Setting [18] is: C. difficile MMX 5681 (NCTC 13307), ribotype 012, CC^R.
[19] abbreviates: C. difficile MMX 8272, ribotype 255, CC^1.
Setting [20] is: C. difficile MMX 8279, ribotype 005, CC^R.
Setting [21] is: C. difficile MMX 8281, ribotype 010, CC^R.
The mark [22] stands for this setting: C. difficile MMX 4381 (ATCC 700057).

In general, MIC refers to the least concentration at which growth counts as inhibited. For the compound `C[C@@H]1[C@H](O)[C@@H](C)/C=C/C=C/C=C/C=C/C=C/C=C/C=C/[C@H](O[C@@H]2O[C@H](C)[C@@H](O)[C@H](N)[C@@H]2O)C[C@@H]2O[C@](O)(C[C@@H](O)C[C@@H](O)[C@H](O)CC[C@@H](O)C[C@@H](O)CC(=O)O[C@H]1C)C[C@H](O)[C@H]2C(=O)O` [Amphotericin B], the minimum inhibitory concentration (MIC) in test [1] (C. albicans MMX 7039, Sensitive, incubation 24 hr) is 0.5, 0.5 μg/mL; in test [1] (C. albicans MMX 7039, Sensitive, incubation 48 hr), 0.5, 0.5 μg/mL; in test [1] (C. albicans MMX 7055, Sensitive, incubation 24 hr) it was 0.25 µg/mL (≈ 0.271 µM); in test [1] (C. albicans MMX 7055, Sensitive, incubation 48 hr) it was 0.5 µg/mL (≈ 0.541 µM); in test [1] (C. glabrata MMX 7318, FLU^R, incubation 24 hr), 0.5 µg/mL (≈ 0.541 µM); in [1] (C. glabrata MMX 7318, FLU^R, incubation 48 hr), 1 µg/mL (≈ 1.08 µM). In addition, the minimum inhibitory concentration (MIC) in test [1] (C. glabrata miX 7086, FLU^R, incubation 24 hr) was 0.5 µg/mL (≈ 0.541 µM); in test [1] (C. glabrata miX 7086, FLU^R, incubation 48 hr) it was 1 µg/mL (≈ 1.08 µM); in test [1] (C. parapsilosis MMX 2323 (ATCC 22019), QC, incubation 24 hr), 0.5 µg/mL (≈ 0.541 µM); in test [1] (C. parapsilosis MMX 2323 (ATCC 22019), QC, incubation 48 hr) it was 1 µg/mL (≈ 1.08 µM); in test [1] (C. parapsilosis MMX 7370, FLU^R, incubation 24 hr) it was 0.5 µg/mL (≈ 0.541 µM); in [1] (C. parapsilosis MMX 7370, FLU^R, incubation 48 hr) it was 1 µg/mL (≈ 1.08 µM). Moreover, the minimal inhibitory concentration (MIC) in test [1] (C. parapsilosis MMX 7555, FLU^R, incubation 24 hr) was 0.5, 0.5 μg/mL; in test [1] (C. parapsilosis MMX 7555, FLU^R, incubation 48 hr), 0.5, 0.5 μg/mL; in test [1] (C. tropicalis MMX 7247, FLU^R, incubation 24 hr), 0.5 µg/mL (≈ 0.541 µM); in test [1] (C. tropicalis MMX 7247, FLU^R, incubation 48 hr) it was 1 µg/mL (≈ 1.08 µM); in [1] (C. tropicalis MMX 7248, FLU^R, incubation 24 hr) it was 0.5 µg/mL (≈ 0.541 µM); in test [1] (C. tropicalis MMX 7248, FLU^R, incubation 48 hr), 1 µg/mL (≈ 1.08 µM). The MIC was 0.5, 0.5 μg/mL in test [1] (C. tropicalis MMX 7360, FLU^R, incubation 24 hr) and 0.5, 0.5 μg/mL in test [1] (C. tropicalis MMX 7360, FLU^R, incubation 48 hr). Also, the MIC 24 hr in test [2] (24 hr) is 0.5 µg/mL (≈ 0.541 µM); in test [3] (A. flavus ATCC 204304) it was 0.5 µg/mL (≈ 0.541 µM); in test [3] (A. fumigatus ATCC MYA-3626) it was 0.5 µg/mL (≈ 0.541 µM); in [4] (24 hr), 0.5 µg/mL (≈ 0.541 µM); in test [9] it was >64; in test [10], >64. Further, the MIC 48 hr in test [2] (48 hr) came out at 0.5 µg/mL (≈ 0.541 µM); in test [3] (A. flavus ATCC 204304), 1 µg/mL (≈ 1.08 µM); in [3] (A. fumigatus ATCC MYA-3626), 1 µg/mL (≈ 1.08 µM); in test [4] (48 hr), 0.5 µg/mL (≈ 0.541 µM). The “CLSI QC range of MIC” value was 0.25 to 2 µg/mL in [5] (24 hr) and 0.5 to 4 µg/mL in test [5] (48 hr). Moreover, the “QC Range 24 hr” value in test [6] (24 hr) was 0.5-2; in [8] (24 hr), 0.25-2. Moreover, the “QC Range 48 hr” value in test [6] (48 hr) was 1-4; in test [7] (A. flavus ATCC 204304, CLSI established QC range), 0.5-4; in test [7] (A. fumigatus ATCC MYA-3626, CLSI established QC range), 0.5-4; in [8] (48 hr), 0.5-4.

With `CCc1c(Cl)c(O)c(Cl)c(O)c1C(=O)O[C@H]1[C@H](O)[C@H](OC)[C@H](OC/C2=C\C=C\C[C@H](O)/C(C)=C/[C@H](CC)[C@@H](O[C@@H]3OC(C)(C)[C@@H](OC(=O)C(C)C)[C@H](O)[C@@H]3O)/C(C)=C/C(C)=C/C[C@@H]([C@@H](C)O)OC2=O)O[C@@H]1C` [Fidaxomicin], the MIC is > 64 µg/mL in test [11] (setting [15]); 0.25 µg/mL (≈ 0.236 µM) in [11] (setting [16]); 4 µg/mL (≈ 3.78 µM) in test [11] (setting [17]); 0.5 µg/mL (≈ 0.473 µM) in test [11] (setting [18]); 0.5 µg/mL (≈ 0.473 µM) in test [11] (setting [19]); 0.5 µg/mL (≈ 0.473 µM) in test [11] (setting [20]). Moreover, the MIC in test [11] (setting [21]) was 0.5 µg/mL (≈ 0.473 µM). Moreover, the “CLSI QC range of MIC” value in test [12] (setting [22]) is recorded as “(0.06-0.25) μg/mL”.

For the compound `Cc1ncc([N+](=O)[O-])n1CCO` [Metronidazole], the minimum inhibitory concentration (MIC) in test [11] (setting [15]) was 0.5 µg/mL (≈ 2.92 µM); in test [11] (setting [16]), 0.5 µg/mL (≈ 2.92 µM); in test [11] (setting [17]), > 64 µg/mL; in [11] (setting [18]) it was 0.5 µg/mL (≈ 2.92 µM); in [11] (setting [19]), 0.5 µg/mL (≈ 2.92 µM); in test [11] (setting [20]), 0.5 µg/mL (≈ 2.92 µM). For the same compound, the minimum inhibitory concentration (MIC) in [11] (setting [21]) is 8 µg/mL (≈ 46.7 µM). Besides, the “CLSI QC range of MIC” value in test [12] (B. fragilis MMX 123 (ATCC 25285)) was “(0.25-1) μg/mL”; in test [12] (setting [22]), “(0.12-0.5) μg/mL”.

For the compound `CCCCCCCCCC(=O)N[C@@H](Cc1c[nH]c2ccccc12)C(=O)N[C@H](CC(N)=O)C(=O)N[C@@H](CC(=O)O)C(=O)N[C@@H]1C(=O)NCC(=O)N[C@@H](CCCN)C(=O)N[C@@H](CC(=O)O)C(=O)N[C@H](C)C(=O)N[C@@H](CC(=O)O)C(=O)NCC(=O)N[C@H](CO)C(=O)N[C@@H]([C@H](C)CC(=O)O)C(=O)N[C@@H](CC(=O)c2ccccc2N)C(=O)O[C@@H]1C` [daptomycin], the “effect of Survanta addition on MIC values” in [13] (S. aureus and S. pneumoniae) is given as “increased”. In addition, the minimal inhibitory concentration (MIC) worked out at 0.06 µg/mL (≈ 0.037 µM) in test [13] (S. pneumoniae ATCC 49619, 0 percent Survanta); 0.25 µg/mL (≈ 0.154 µM) in test [13] (S. pneumoniae ATCC 49619, 1 percent Survanta); 1 µg/mL (≈ 0.617 µM) in test [13] (S. pneumoniae ATCC 49619, 2.5 percent Survanta); 0.12 µg/mL (≈ 0.074 µM) in [13] (S. pneumoniae MMX 3162, 0 percent Survanta); 0.25 µg/mL (≈ 0.154 µM) in test [13] (S. pneumoniae MMX 3162, 1 percent Survanta); 0.25 µg/mL (≈ 0.154 µM) in [13] (S. pneumoniae MMX 3162, 2.5 percent Survanta). In addition, the MIC in test [13] (Staphylococcus aureus, ATCC29213, S. aureus ATCC 29213, 0 percent Survanta) was 0.5 µg/mL (≈ 0.309 µM); in test [13] (Staphylococcus aureus, ATCC29213, S. aureus ATCC 29213, 1 percent Survanta), 16 µg/mL (≈ 9.87 µM); in [13] (Staphylococcus aureus, ATCC29213, S. aureus ATCC 29213, 2.5 percent Survanta) it was 32 µg/mL (≈ 19.7 µM); in test [13] (Staphylococcus aureus, ATCC29213, S. aureus ATCC 29213, 5 percent Survanta) it was > 32 µg/mL; in test [13] (Staphylococcus aureus, ATCC29213, S. aureus ATCC 29213, 10 percent Survanta), > 32 µg/mL; in [13] (Staphylococcus aureus, ATCC43300, S. aureus ATCC 43300, 0 percent Survanta), 0.25 µg/mL (≈ 0.154 µM). Moreover, the MIC was 8 µg/mL (≈ 4.94 µM) in [13] (Staphylococcus aureus, ATCC43300, S. aureus ATCC 43300, 1 percent Survanta); 16 µg/mL (≈ 9.87 µM) in [13] (Staphylococcus aureus, ATCC43300, S. aureus ATCC 43300, 2.5 percent Survanta); 16 µg/mL (≈ 9.87 µM) in [13] (Staphylococcus aureus, ATCC43300, S. aureus ATCC 43300, 5 percent Survanta); > 32 µg/mL in [13] (Staphylococcus aureus, ATCC43300, S. aureus ATCC 43300, 10 percent Survanta). For the same compound, the “CLSI acceptable MIC QC range” value is “(0.12-1) μg/mL” in [14] (S. aureus ATCC 29213) and “(0.06-0.5) μg/mL” in test [14] (S. pneumoniae ATCC 49619).
